The record followed here is patent publication US11529341B2, “Bicyclic compounds as inhibitors of PD1/PD-L1 interaction/activation” (JUBILANT PRODEL LLC, priority 2018, dated 2022).

Where only a bound is given, the exact number is not on record here.

In general, IC50 refers to the concentration that gives 50% inhibition. A low value points to greater potency.

The target in the assay is T1, PD-1/PD-L1 interaction (Homo sapiens, UniProt Q9NZQ7).
T1 construct: Tag1 (undisclosed kit tag); purchased CisBio 63ADK000CPAPEG
T1 sequence (Q9NZQ7 19-238 limits assumed): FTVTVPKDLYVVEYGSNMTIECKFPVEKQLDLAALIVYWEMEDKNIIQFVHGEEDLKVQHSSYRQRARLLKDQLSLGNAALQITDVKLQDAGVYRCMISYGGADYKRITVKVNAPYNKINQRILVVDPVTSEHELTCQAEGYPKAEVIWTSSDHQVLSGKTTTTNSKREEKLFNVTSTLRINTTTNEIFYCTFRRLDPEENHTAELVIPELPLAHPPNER
Briefly: PD-1/PD-L1 Homogenous Time-Resolved Fluorescence (HTRF) binding assay (CisBio kit). Particulars: Biochemical PD1/PD-L1 inhibition. The essentials:
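Tagged PD-L1 and PD-1 proteins preincubated with compound 15 min, then anti-Tag1-Eu3+ donor and anti-Tag2-XL665 acceptor added, 1 h at room temperature. Emission read at 665 and 620 nm; signal expressed as HTRF ratio (665/620)×10^4, loss of signal indicating blocked binding.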
For orientation: TR-FRET usually uses a lanthanide donor and a delayed reading to cut background.

`COC(=O)C12CCC(NCc3c(OCc4cccc(C#N)c4)cc(OCc4cccc(-c5ccccc5)c4C)c4c3CCC4)(CC1)CC2` [Compound 73, methyl 4-(((5-((3-cyanobenzyl)oxy)-7-((2-methyl-[1,1′-biphenyl]-3-yl)methoxy)-2,3-dihydro-1H-inden-4-yl)methyl)amino)bicyclo[2.2.2]octane-1-carboxylate] registered an IC50 of 100 to 500 nM. To `Cc1c(COc2cc(OCc3cccc(C#N)c3)c(CNC34CCC(C(=O)O)(CC3)CC4)c3c2CCC3)cccc1-c1ccccc1` [Compound 74, 4-(((5-((3-cyanobenzyl)oxy)-7-((2-methyl-[1,1′-biphenyl]-3-yl)methoxy)-2,3-dihydro-1H-inden-4-yl)methyl)amino)bicyclo[2.2.2]octane-1-carboxylic acid] belongs less than 100 nM; to `COc1cc(OCc2cccc(-c3ccccc3)c2C(F)(F)F)c2c(c1CN1CCCC[C@H]1C(=O)O)CCC2` [Compound 75, (S)-1-((5-methoxy-7-((2-(trifluoromethyl)-[1,1′-biphenyl]-3-yl)methoxy)-2,3-dihydro-1H-inden-4-yl)methyl)piperidine-2-carboxylic acid], more than 500 nM; to `COc1cc(OCc2cccc(-c3ccccc3)c2C(F)(F)F)c2c(c1CN1C[C@H](O)C[C@H]1C(=O)O)CCC2` [Compound 76, (2S,4R)-4-hydroxy-1-((5-methoxy-7-((2-(trifluoromethyl)-[1,1′-biphenyl]-3-yl)methoxy)-2,3-dihydro-1H-inden-4-yl)methyl)pyrrolidine-2-carboxylic acid], more than 500 nM. The result for `Cc1c(COc2cc(OCC3CCCN(C)C3)c(CN3CCCC[C@H]3C(=O)O)c3c2CCC3)cccc1-c1ccccc1` (stereo partly drawn) [Compound 77, (2S)-1-((7-((2-methyl-[1,1′-biphenyl]-3-yl)methoxy)-5-((1-methylpiperidin-3-yl)methoxy)-2,3-dihydro-1H-inden-4-yl)methyl)piperidine-2-carboxylic acid] reads less than 100 nM; that for `N#Cc1c(COc2cc(OCCCCC(=O)O)c(CN3CCCC[C@H]3C(=O)O)c3c2CCC3)cccc1-c1ccccc1` [Compound 78, (S)-1-((5-(4-carboxybutoxy)-7-((2-cyano-[1,1′-biphenyl]-3-yl)methoxy)-2,3-dihydro-1H-inden-4-yl)methyl)piperidine-2-carboxylic acid], less than 100 nM; that for `CC(=O)NCCNCc1c(OCCCCC#N)cc(OCc2cccc(-c3ccccc3)c2C)c2c1CCC2` [Compound 79, N-(2-(((5-(4-cyanobutoxy)-7-((2-methyl-[1,1′-biphenyl]-3-yl)methoxy)-2,3-dihydro-1H-inden-4-yl)methyl)amino)ethyl)acetamide], less than 100 nM. The result for `Cc1c(COc2cc(OCCCCC#N)c(CN3CCCC[C@H]3C(N)=O)c3c2CCC3)cccc1-c1ccccc1` [Compound 80, (S)-1-((5-(4-cyanobutoxy)-7-((2-methyl-[1,1′-biphenyl]-3-yl)methoxy)-2,3-dihydro-1H-inden-4-yl)methyl)piperidine-2-carboxamide] reads more than 500 nM; that for `Cc1c(COc2cc(OCCCCC#N)c(CN3C[C@H](O)C[C@H]3C(=O)O)c3c2CCC3)cccc1-c1ccccc1` [Compound 81, (2S,4R)-1-((5-(4-cyanobutoxy)-7-((2-methyl-[1,1′-biphenyl]-3-yl)methoxy)-2,3-dihydro-1H-inden-4-yl)methyl)-4-hydroxypyrrolidine-2-carboxylic acid], less than 100 nM. As to `Cc1c(COc2cc(OC[C@H]3C[C@H]3C(=O)O)c(CN3CCCC[C@H]3C(=O)O)c3c2CCC3)cccc1-c1ccccc1` [Compound 82, (S)-1-((5-(((1S,2R)-2-carboxycyclopropyl)methoxy)-7-((2-methyl-[1,1′-biphenyl]-3-yl)methoxy)-2,3-dihydro-1H-inden-4-yl)methyl)piperidine-2-carboxylic acid], the concentration for half-maximal inhibition (IC50) was 100 to 500 nM.
